These results are taken from ChEMBL document CHEMBL3244006, “Synthesis and antinociceptive activity of 7-methoxycodeine” (J Med Chem, 1978).

For series [1], the system named is Mus musculus. As to the kind of experiment: Antinociceptive activity in sc dosed mouse by Eddy hot-plate assay. Format: functional.
In series [2] the test system is Mus musculus. As to the kind of experiment: Antinociceptive activity in mouse at 100 mg/kg, po by Eddy hot-plate assay. Format: functional, organism-based. On the set-up: dose 100 mg/kg.
The test system of series [3] is Mus musculus. As to the kind of experiment: Antinociceptive activity in po dosed mouse by Eddy hot-plate assay. The series is classed as functional.
Series [4] has as its system Mus musculus. As to the kind of experiment: Antinociceptive activity in mouse at 100 mg/kg, sc by Eddy hot-plate assay. The series is classed as functional, organism-based. On the set-up: dose 100 mg/kg.
The nature of series [5]: Stability of the compound in acidic media. Format: physicochemical.

Active and inactive are the calls of the source. The rule behind the calls is not given here.

As for `COc1ccc2c(c1O)[C@]13CCN(C)[C@H](C2)[C@@H]1CC(=O)C(=O)C3`, the 50% effective dose (ED50) in series [1] stood at 26.7 µmol/kg. The outcome in series [2] was inactive.

`COc1ccc2c3c1O[C@H]1[C@@H](O)C=C[C@H]4[C@@H](C2)N(C)CC[C@@]341` [CODEINE PHOSPHATE] came in with an ED50 in series [3] of 34 µmol/kg.

For the compound `CN1CC[C@]23c4c5ccc(O)c4O[C@H]2[C@@H](O)C=C[C@H]3[C@H]1C5`, the 50% effective dose (ED50) came out at 3.3 µmol/kg in series [1] and 18.8 µmol/kg in series [3].

Take `COC1=C[C@H]2[C@H]3Cc4c(Br)cc(OC)c(O)c4[C@@]2(CCN3C)CC1=O`: in series [4], the outcome was inactive.

In the case of `COC1=C[C@]23CCN(C)[C@H](Cc4c(Br)cc(OC)c(O)c42)[C@@H]3CC1=O`, the outcome in series [4] was inactive.

For `COC1=C[C@H]2[C@H]3Cc4c(Br)cc(OC)c5c4[C@@]2(CCN3C)[C@@H](O5)C1=O`, the ED50 in series [1] came out at 40.4 µmol/kg.

For the compound `COC1=C[C@H]2[C@H]3Cc4ccc(OC)c5c4[C@@]2(CCN3C)[C@@H](O5)[C@H]1O`, the 50% effective dose (ED50) in series [1] amounted to 43.1 µmol/kg; in series [3], 30.4 µmol/kg. In addition, the Stability result in series [5] is on record as “Unstable”.
